Reference: US10308685B2, “Inhibitory peptides of viral infection” (UNIVERSITY OF TENNESSEE RESEARCH FOUNDATION, priority 2014, dated 2019)
Where no end group is shown, it is not given here.

Tests used:
[1] = test system: MEF 10.1 cells; experiment: Measuring amount of bound biotinylated peptide on MEF 10.1 cells (time resolved fluorescence); type: binding, Mouse
Method: (§1) Heparinase I (cat. # H2519), Heparinase II (cat. # H6512), Heparinase III (cat. # H8891) and Chondroitinase ABC (cat. # C3667) were obtained from Sigma Aldrich (St. Louis, Mo.). MEF 10.1 cells in culture were treated with heparinase re-suspended in heparinase buffer (20 mM Tris-HCl, pH 7.5, 50 mM NaCl, 4 mM CaCl2, and 0.01% BSA) at a concentration of 1 U/ml or chondroitinase re-suspended in chondroitinase buffer (50 mM Tris, pH 8.0, 60 mM sodium acetate and 0.02% bovine serum albumin) at a concentration of 1 U/ml for 1 h. at 37° C. As a control, cells were treated with enzyme buffer alone. Following incubation the enzyme solution was removed and cells were washed once with PBS to remove excess enzyme. Subsequently the cells were treated with peptide or infected with virus. The data was collected and analyzed as described previously.
MEF 10.1 Cells were grown in 24-well cell culture plates as described above. Each well was probed with 100 μL of biotinylated peptides at 1 μg/mL in cold DMEM/F12 with 0.1% BSA and incubated for one hour at 4° C. Following the incubation the cells were washed twice with ice cold PBS and fixed with 1.25% glutaraldehyde. Fixed samples were washed twice and stored in PBS for 24 hours. […] The plate was washed three times with PBS, enhancement solution added, and time resolved fluorescence measured on the Wallac Victor 3 (Perkin-Elmer).

[2] = test system: MCMV; experiment: Interference of peptide mediated reduction by heparin (MCMV plaque reduction); type: cell-based, Murine Cytomegalovirus; settings: peptide 100 μM pre-incubated with heparin 1 h at 37° C. before addition to cells
Method: Peptide GGGY-p5+14 (SEQ ID NO: 25) (at 100 μM) was pre-incubated with heparin sodium salt (Acros Organics, NJ) at different concentrations for 1 h at 37° C. Following which the heparin/peptide mix was added to the cells and incubated for 30 min at 37° C. Following the incubation, the supernatant was aspirated and cells washed once with PBS to remove unbound/excess heparin or peptide. The cells were subsequently infected with ˜100 pfu/well of MCMV. To test whether heparin treatment of cells interferes with virus infection, MEF 10.1 cells in a 24 well dish were pre-incubated with different concentrations of heparin for 1 hour and washed as described above. Following the pre-incubation infection was initiated as mentioned above. Finally to test the effect of heparin treatment on the infectivity of virus, MCMV was incubated with different concentration of heparin for lhr before infecting cells. For all these treatments, the virus was removed lhr post infection and cells overlaid with CMC. Plates were incubated for 4 days before staining and counting the plaques. Plaque reduction assay was performed as mentioned above.

[3] = mouse, in vivo; cited from earlier work
[4] = test system: MCMV; experiment: Enzymatic treatment of cells (heparinase / chondroitinase) followed by MCMV plaque reduction assay; type: cell-based, Murine Cytomegalovirus
Method: as §1

[5] = test system: MCMV; type: cell-based, Murine Cytomegalovirus
Method: (§2) Murine Cytomegalovirus (MCMV) RM4503 was cultured in vitro in MEF 10.1 cells. The virus stock was titered using plaque assay (described below) and stored at −80° C. Human Cytomegalovirus (HCMV) TB40/E was obtained from (46, 47) and cultures in vitro in HFF cells. The virus stock was titered using plaque assay and stored at −80° C. HSV-1 and HSV-2 were cultured in vitro in VERO cells. The virus stock was titered using plaque assay and stored at −80° C.
(§3) Peptides were screened for their ability to reduce viral infection using a plaque reduction assay. Cells were cultured in 12-well (VERO) or 24-well culture plates (MEF 10.1 and HFF). When the cells reached ˜80% confluence the media was removed and the cells washed once with PBS before addition of peptide. As a control, cells were incubated with PBS alone. After a 30 min of incubation with peptide in PBS, the virus was added and incubated for another 90 min (HSV and HCMV) or 60 min (MCMV). Following virus incubation the peptide/virus mixture was removed and replaced with 0.75% carboxy-methyl cellulose (Sigma Aldrich, St. Louis, Mo.)+complete media (CMC) or 0.5% agarose (Lonza, Rockland, Me.) in complete media. The plates were incubated at 37° C. in 5% CO2 for 4 days when plaques began to develop, following which they were stained with Coomassie stain (AMRESCO, Solon, Ohio). Plaques were counted manually and data analyzed using Prism 5.0 (GraphPad Software, La Jolla, Calif.). Data were expressed as % plaques relative to the average number of plaques in the PBS-treated wells.
In the initial screening assays all peptides were tested at a single concentration (500 μg/ml) using a plaque-reduction assay, in which mouse embryonic fibroblasts were incubated with the peptides for 30 min prior to the addition of virus.
In the infectivity assays described above the peptide and virus were co-incubated with the cells. Therefore to ensure the peptide was not directly inactivating the virus, MCMV was incubated with 100 μM (˜20× the IC50) peptide at 37° C. for 1 h, diluted to an ineffective peptide concentration (1 μM) and fibroblast infection rates measured.
To determine at which stage of the MCMV entry cycle the peptide interferes, four different peptide treatment protocols were tested, 1) 30 min. prior to infection (pre-adsorption) 2) simultaneously with virus (during adsorption) 3) after letting the virus adsorb to the cells at 4° C. for lhr (post adsorption) or 4) after allowing the virus to fuse with the cell membrane at 37° C. for lhr (post fusion) (FIG. 3(B)).

[6] = test system: HSV-2; experiment: Plaque reduction assay, HSV-2 in VERO cells; type: cell-based, herpes simplex virus; settings: 100 μM
Method: as §2
as §3, with “The plates were incubated at 37° C. in 5% CO2 for 4 days when plaques began to develop, following which they were stained with Coomassie stain (AMRESCO, Solon, Ohio).” left out

[7] = test system: MEF 10.1 cells; experiment: Visualization of bound biotinylated peptide on fixed MEF cells (fluorescence); type: binding, Mouse; settings: 1.6 μg/mL, streptavidin fluorescence
Method: Coverslips with fixed MEF cells prepared, washed in PBS and blocked with 1% BSA/PBS for 5 min. Following a PBS wash the nuclei were stained by using Hoechst (Life Technologies Molecular Probes, Grand Island, N.Y.) 1:100 in H2O— for 30 min at 37° C. Tissues were then blocked using a casein block solution (Scytek) for 5 min, AVIDIN/Biotin blocks (VECTOR, Burlingame, Calif.) for 20 min each at room temperature (RT) followed by a 5 min PBS wash. Biotinylated GGGY-p5+14 (SEQ ID NO: 25) or p5G (control) at 1.6 μg/mL in PBS was added and the tissues incubated overnight at 4° C. Following a PBS wash Alexa Fluor 594-conjugated streptavidin (Molecular Probes) was added at a 1:200 dilution in PBS for lhr at RT. Cells were then permeabilized by addition of 0.2% Triton X-100 (Sigma) in PBS for 10 min at RT and washed with a solution of 1% BSA in PBS for 30 min. The cells were then stained with Alexa Fluor 488-conjugated phalloidin (Molecular Probes) 1:100 dilution of stock in 1% BSA/PBS, for 45 min. at RT to visualize cytoskeleton. Slides were cover-slipped using a fluorescent mounting medium (Dako, Carpinteria, Calif.) to minimize photobleaching.

[8] = test system: HCMV; experiment: Plaque reduction assay, HCMV infectivity in HFF cells; type: cell-based, Human Cytomegalovirus; settings: 100 μM
Method: as §2
as §3, with “The plates were incubated at 37° C. in 5% CO2 for 4 days when plaques began to develop, following which they were stained with Coomassie stain (AMRESCO, Solon, Ohio).” left out

## GGGYSKAQKAQAKQAKQAQKAQKAQAKQAKQAQKAQKAQAKQAKQ [GGGY-p5+14]
[1]; cells treated with chondroitinase
  reduction in the amount of bound peptide: ~11%
[1]; cells treated with heparinase
  reduction in the amount of bound peptide: ~40%
[2]
  effect of pre-incubation of peptide with heparin on inhibition of MCMV infection: reduced its ability to inhibit MCMV infection in a dose-dependent manner
[3]
  peptide binding to GAGs expressed in healthy organs or tissues: no evidence of peptide binding to GAGs expressed in healthy organs or tissues
[4]; chondroitinase 1 U/ml
  effect of chondroitinase treatment of cells on the activity of the peptide: nor did it have any effect on the activity of the peptide
[4]; heparinase 1 U/ml plus peptide
  reduction in MCMV infectivity, peptide added to heparinase treated cells: ~80%
[5]
  IC50: 5.2 µM
[5]; 10 μM
  reduction in infection (MCMV): > 80%
[5]; 100 μM
  inhibition of MCMV infection: effectively inhibited
[5]; 500 μg/ml, mouse embryonic fibroblasts incubated with peptide 30 min prior to virus
  inhibition of MCMV infection (plaque reduction): > 90%
[5]; MCMV incubated with 100 μM peptide at 37° C. for 1 h, diluted to 1 μM
  direct neutralizing effect on the virus: did not have any direct neutralizing effect on the virus itself
[5]; post adsorption or post fusion
  plaque formation, peptide added after the adsorption or fusion phase of viral entry: no significant reduction in plaque formation
[5]; pre-adsorption or during adsorption
  infection (plaque formation), peptide added before or in conjunction with virus addition: > 80%
[5]; serial dilution of peptide, FIG. 1(B)
  concentrations giving significant reduction in infection: > 5 µg/mL
[6]
  reduction of HSV 2 infection: ~40%
[7]
  binding to mouse fibroblasts in culture: bound mouse fibroblasts
[8]
  reduction of infection (HCMV): ~80%
